Publication PMC8355244, “A fragment-based approach identifies an allosteric pocket that impacts malate dehydrogenase activity” (Communications Biology, 2021)
Values joined by “and” are separate entries in the source; they are usually repeats but may differ in a detail not shown here. Identical values can stand only once. Like-named read-outs stand apart in the source and are kept apart here.

Tests used:
[1] = Precipitation / turbidity of compound in assay buffer (600 nm); format: physicochemical; details: aqueous assay buffer
Protocol: 1.3 µL of derivatives of 4-phenylthiazol-2-amine in 100% DMSO were mixed with 237.7 µL of a mastermix of WT PfMDH previously incubated with NAD+. The final compound concentration used in this screening was 500 µM in the presence of 0.5% (v/v) DMSO. The microplate was sealed with silver foil for 1-h incubation at 25–35 °C. Finally, reactions in both the samples and control wells were started upon the addition of 13.0 µL of 5 mM malate). At the end of the experiments, the reaction of the plate was spectrophotometrically assayed at 600 nm in order to identify turbidity due to the low solubility of the compound. All measurements were performed in duplicate.

WT PfMDH = target: T1, WT PfMDH (Plasmodium falciparum, UniProt Q6VVP7); assay: 4PA dose-response inhibition of PfMDH; format: biochemical; details: for Slope / Response (Delta Abs[340 nm]/min): replicates
T1 construct: The full-length WT PfMDH gene was cloned into pETM-13; made in house; host or cells: E. coli Rosetta 2 (DE3) pLysS
Protocol: The oxidation of malate to oxaloacetate was assayed spectrophotometrically in flat-bottomed Corning 96-well microplates in a total volume of 250.0 µl in 50 mM glycine buffer pH 10.2[24] with an additional 400 mM NaCl for protein stability. The increase of absorbance at 340 nm was recorded in kinetic mode using a Tecan Spark multimode microplate reader at 298 K. A mastermix of 50 mM NAD+ and 44 μM PfMDH was used for both the screening and kinetics experiments. The final concentration of protein and cofactor were […], respectively. Positive control groups were set (absence of compound) in the same plate as the treated group. The absorbance from the background noise was subtracted from the data and then a linear regression model was employed in order to get the line slope from the first 5 min of the reaction. The percentage of enzymatic activity has been calculated as described by Eq. (1)1 enzymeactivity(%)=slopetreated/slopepositivecontrol*100
While the fragment initially discovered was 4-(3,4-difluorophenyl) thiazol-2-amine, we decided to perform enzymatic and kinetic assays using a similar substructure 4-phenylthiazol-2-amine. 2× fold dilutions from a 200 mM stock solution of the compound in 100% DMSO was prepared for dose–response experiments. 3.3 µL of compound (DMSO in the case of positive control) were mixed with 233.9 µL mastermix of WT PfMDH previously incubated with 3 mM NAD + using a multichannel pipette. The final conditions tested were a maximum of 2.5 mM of 4PA at 1.32% (v/v) final DMSO concentration. The microplate was incubated for 15 min at 25.35 °C and the reaction started with the addition of 13.0 µL of 5 mM L-malate.

PfMDH = target: T2, PfMDH (Plasmodium falciparum, UniProt Q6VVP7); assay: Kinetics experiment with varying L-malate, substrate inhibition model; format: biochemical; parameters: key to Ki (best-fit value, substrate inhibition model): Ki in mM; key to Vmax (best-fit value): Vmax in U/mg; 4PA kinetics raw data (rate): unit not given here; details: for Ki (best-fit value, substrate inhibition model) / Vmax (best-fit value): pH 10.2, Supplementary Table 6; for 4PA kinetics raw data (rate): replicates
T2 construct: The full-length WT PfMDH gene was cloned into pETM-13; made in house; host or cells: E. coli Rosetta 2 (DE3) pLysS
T2 sequence (Q6VVP7 entry or part of it): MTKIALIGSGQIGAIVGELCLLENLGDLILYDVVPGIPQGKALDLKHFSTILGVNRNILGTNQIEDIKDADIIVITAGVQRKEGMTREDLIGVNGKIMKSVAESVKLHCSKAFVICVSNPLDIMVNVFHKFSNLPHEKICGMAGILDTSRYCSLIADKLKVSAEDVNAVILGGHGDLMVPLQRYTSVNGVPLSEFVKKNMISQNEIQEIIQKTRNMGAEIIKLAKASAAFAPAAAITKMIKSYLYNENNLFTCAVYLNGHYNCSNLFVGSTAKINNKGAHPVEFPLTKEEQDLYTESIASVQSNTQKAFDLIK

T1 sequence (Q6VVP7 entry or part of it): as above

## Nc1nc(-c2ccccc2)cs1 [4PA, 4-phenylthiazol-2-amine]
[1]
  solubility (in words): slightly more soluble than 4DT
WT PfMDH; 5 mM L-malate, 3 mM NAD+, pH 10.2, read-out: IC50
  IC50: 1.12 ± 0.03 mM
WT PfMDH; Dose 1e-6 M
  Slope: 0.04587 and 0.04675 and 0.04799
WT PfMDH; Dose 0.000237161 M
  Slope: 0.03425 and 0.02991 and 0.02497
WT PfMDH; Dose 0.000332026 M
  Slope: 0.03311 and 0.03278 and 0.02964
WT PfMDH; Dose 0.000464836 M
  Slope: 0.03179 and 0.02952 and 0.02569
WT PfMDH; Dose 0.000650771 M
  Slope: 0.0287 and 0.02683 and 0.02888
WT PfMDH; Dose 0.000911079 M
  Slope: 0.02984 and 0.02623 and 0.02457
WT PfMDH; Dose 0.00127551 M
  Slope: 0.01897 and 0.02591 and 0.01942
WT PfMDH; Dose 0.00178571 M
  Slope: 0.01091 and 0.01205 and 0.0179
WT PfMDH; Dose 0.0025 M
  Slope: 0.01337 and 0.01172 and 0.009871
WT PfMDH; Dose 1.00E-06 M
  Response (Delta Abs[340 nm]/min): 4.59E-02 Delta Abs[340 nm]/min and 4.67E-02 Delta Abs[340 nm]/min and 4.80E-02 Delta Abs[340 nm]/min
WT PfMDH; Dose 1.28E-03 M
  Response (Delta Abs[340 nm]/min): 1.90E-02 Delta Abs[340 nm]/min and 2.59E-02 Delta Abs[340 nm]/min and 1.94E-02 Delta Abs[340 nm]/min
WT PfMDH; Dose 1.79E-03 M
  Response (Delta Abs[340 nm]/min): 1.09E-02 Delta Abs[340 nm]/min and 1.20E-02 Delta Abs[340 nm]/min and 1.79E-02 Delta Abs[340 nm]/min
WT PfMDH; Dose 2.37E-04 M
  Response (Delta Abs[340 nm]/min): 3.43E-02 Delta Abs[340 nm]/min and 2.99E-02 Delta Abs[340 nm]/min and 2.50E-02 Delta Abs[340 nm]/min
WT PfMDH; Dose 2.50E-03 M
  Response (Delta Abs[340 nm]/min): 1.34E-02 Delta Abs[340 nm]/min and 1.17E-02 Delta Abs[340 nm]/min and 9.87E-03 Delta Abs[340 nm]/min
WT PfMDH; Dose 3.32E-04 M
  Response (Delta Abs[340 nm]/min): 3.31E-02 Delta Abs[340 nm]/min and 3.28E-02 Delta Abs[340 nm]/min and 2.96E-02 Delta Abs[340 nm]/min
WT PfMDH; Dose 4.65E-04 M
  Response (Delta Abs[340 nm]/min): 3.18E-02 Delta Abs[340 nm]/min and 2.95E-02 Delta Abs[340 nm]/min and 2.57E-02 Delta Abs[340 nm]/min
WT PfMDH; Dose 6.51E-04 M
  Response (Delta Abs[340 nm]/min): 2.87E-02 Delta Abs[340 nm]/min and 2.68E-02 Delta Abs[340 nm]/min and 2.89E-02 Delta Abs[340 nm]/min
WT PfMDH; Dose 9.11E-04 M
  Response (Delta Abs[340 nm]/min): 2.98E-02 Delta Abs[340 nm]/min and 2.62E-02 Delta Abs[340 nm]/min and 2.46E-02 Delta Abs[340 nm]/min
WT PfMDH; log(inhibitor) vs. normalized response, variable slope
  LogIC50 (best-fit value): -2.934 and -2.922
WT PfMDH; log(inhibitor) vs. normalized response, variable slope, read-out: IC50 (best-fit value)
  IC50: 1.16 mM and 1.2 mM
PfMDH; 63 μM
  Ki (best-fit value, substrate inhibition model): 63.00 ± 31.8
  Vmax (best-fit value): 645.7 ± 29.0
PfMDH; 125 μM
  Ki (best-fit value, substrate inhibition model): 72.93 ± 41.9
  Vmax (best-fit value): 630.2 ± 28.5
PfMDH; PfMDH + 63 uM, malate 0.078125 mM
  4PA kinetics raw data (rate): 0.0098 and 0.01006 and 0.00834
PfMDH; PfMDH + 63 uM, malate 0.15625 mM
  4PA kinetics raw data (rate): 0.01266 and 0.01336 and 0.01325
PfMDH; PfMDH + 63 uM, malate 0.3125 mM
  4PA kinetics raw data (rate): 0.01621 and 0.01654 and 0.01602
PfMDH; PfMDH + 63 uM, malate 0.625 mM
  4PA kinetics raw data (rate): 0.02019 and 0.02009 and 0.02113
PfMDH; PfMDH + 63 uM, malate 1.25 mM
  4PA kinetics raw data (rate): 0.02141 and 0.02369 and 0.02088
PfMDH; PfMDH + 63 uM, malate 2.5 mM
  4PA kinetics raw data (rate): 0.02622 and 0.02453 and 0.02721
PfMDH; PfMDH + 63 uM, malate 10 mM
  4PA kinetics raw data (rate): 0.02549 and 0.02349 and 0.01973
PfMDH; PfMDH + 125 uM, malate 0.078125 mM
  4PA kinetics raw data (rate): 0.00804 and 0.006868 and 0.007099
PfMDH; PfMDH + 125 uM, malate 0.15625 mM
  4PA kinetics raw data (rate): 0.01089 and 0.01117 and 0.0101
PfMDH; PfMDH + 125 uM, malate 0.3125 mM
  4PA kinetics raw data (rate): 0.01419 and 0.01394 and 0.01404
PfMDH; PfMDH + 125 uM, malate 0.625 mM
  4PA kinetics raw data (rate): 0.01376 and 0.01789 and 0.01385
PfMDH; PfMDH + 125 uM, malate 1.25 mM
  4PA kinetics raw data (rate): 0.02005 and 0.02063 and 0.0175
PfMDH; PfMDH + 125 uM, malate 2.5 mM
  4PA kinetics raw data (rate): 0.02038 and 0.02019 and 0.02077
PfMDH; PfMDH + 125 uM, malate 10 mM
  4PA kinetics raw data (rate): 0.01925 and 0.01826 and 0.01944
PfMDH; in presence of 63 μM compound
  Ki change vs control: 5 fold
PfMDH; in presence of 125 μM compound
  Ki change vs control: 6 fold
PfMDH; in the presence of 63 μM compound, control 967.8 ± 99.0
  Vmax: 645.7 ± 29.0 U mg^−1
PfMDH; in the presence of 125 μM compound
  Vmax: 630.2 ± 28.5 U mg^−1
PfMDH; vs malate
  mechanism of the inhibition: non-competitive
